For the assay, the target named is GCN2 (Homo sapiens (Human), UniProt Q9P2K8). As to the kind of experiment: GCN2 Biochemical Assay (TR-FRET, GFP-eIF2S1 substrate phosphorylation). The note with it: read-out: IC50 (GCN2 Inhibitory Activity). The procedure, abridged:
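In-house GCN2 (1.6 nM 2× stock) phosphorylates GFP-eIF2S1 (50 nM 2× stock) with ATP (0.2 mM 2× stock) and tRNA, pH 7.5, 70 min at room temperature; 10-point 3.16-fold compound series. TR-FRET detection with Tb-anti-phospho antibody, 2–3 h, Ex 340/Em 490/520 nm; artifact plate spiked with phospho-substrate.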
(In general: Time-resolved FRET reads energy transfer from a long-lived donor to a nearby acceptor.)

Where only a bound is given, the exact number is not on record here.

Chain of GCN2 (Q9P2K8 whole entry): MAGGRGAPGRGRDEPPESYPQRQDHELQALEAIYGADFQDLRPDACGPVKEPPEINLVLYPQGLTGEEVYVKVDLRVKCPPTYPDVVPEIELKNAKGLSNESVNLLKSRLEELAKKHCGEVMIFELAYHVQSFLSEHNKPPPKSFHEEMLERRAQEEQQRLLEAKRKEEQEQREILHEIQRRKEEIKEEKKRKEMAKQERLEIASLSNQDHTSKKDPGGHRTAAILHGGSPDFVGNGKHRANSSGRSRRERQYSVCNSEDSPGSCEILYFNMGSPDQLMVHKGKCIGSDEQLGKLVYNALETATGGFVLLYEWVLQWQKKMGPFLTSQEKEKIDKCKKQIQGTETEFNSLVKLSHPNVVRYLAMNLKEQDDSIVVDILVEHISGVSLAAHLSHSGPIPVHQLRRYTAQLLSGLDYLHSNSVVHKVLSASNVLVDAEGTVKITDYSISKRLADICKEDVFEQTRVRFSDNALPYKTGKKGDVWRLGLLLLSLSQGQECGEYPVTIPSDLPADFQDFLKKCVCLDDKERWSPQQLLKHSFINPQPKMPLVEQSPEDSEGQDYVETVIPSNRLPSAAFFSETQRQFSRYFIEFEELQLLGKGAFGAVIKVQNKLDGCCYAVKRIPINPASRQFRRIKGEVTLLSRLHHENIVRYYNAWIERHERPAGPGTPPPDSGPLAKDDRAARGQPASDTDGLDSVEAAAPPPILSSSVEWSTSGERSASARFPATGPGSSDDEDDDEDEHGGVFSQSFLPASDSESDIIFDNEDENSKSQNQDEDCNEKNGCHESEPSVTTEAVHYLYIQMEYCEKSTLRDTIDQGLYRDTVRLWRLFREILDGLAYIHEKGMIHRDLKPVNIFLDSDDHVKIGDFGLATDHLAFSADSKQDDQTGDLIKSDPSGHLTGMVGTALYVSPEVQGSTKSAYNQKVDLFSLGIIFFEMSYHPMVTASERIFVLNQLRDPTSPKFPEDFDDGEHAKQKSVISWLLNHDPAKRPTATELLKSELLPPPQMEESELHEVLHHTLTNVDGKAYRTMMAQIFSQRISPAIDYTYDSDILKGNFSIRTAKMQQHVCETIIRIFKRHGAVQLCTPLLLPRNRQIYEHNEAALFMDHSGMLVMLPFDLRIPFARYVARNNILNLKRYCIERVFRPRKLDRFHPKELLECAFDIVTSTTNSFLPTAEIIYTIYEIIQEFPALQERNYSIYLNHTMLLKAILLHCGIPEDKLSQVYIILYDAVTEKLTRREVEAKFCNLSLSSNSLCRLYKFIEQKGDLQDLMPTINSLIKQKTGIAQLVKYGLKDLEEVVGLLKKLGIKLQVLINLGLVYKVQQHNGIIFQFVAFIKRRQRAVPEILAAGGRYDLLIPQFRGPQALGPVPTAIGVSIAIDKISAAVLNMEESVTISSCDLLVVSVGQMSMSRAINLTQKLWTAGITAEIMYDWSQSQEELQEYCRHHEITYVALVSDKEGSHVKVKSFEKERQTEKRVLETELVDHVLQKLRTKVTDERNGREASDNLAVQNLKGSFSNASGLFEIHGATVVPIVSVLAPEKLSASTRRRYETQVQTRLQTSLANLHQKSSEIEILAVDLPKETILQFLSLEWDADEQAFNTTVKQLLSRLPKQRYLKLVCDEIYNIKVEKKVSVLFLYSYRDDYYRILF

Take `Cc1cnc(Nc2cc(C)n(C)n2)nc1-c1c[nH]c2c(NC(=O)CN3CC[C@H](Oc4nc(NC5CCCCC5)ncc4F)C3)cccc12` [Example 228, (S)-2-(3-((2-(cyclohexylamino)-5-fluoropyrimidin-4-yl)oxy)pyrrolidin-1-yl)-N-(3-(2-((1,5-dimethyl-1H-pyrazol-3-yl)amino)-5-methylpyrimidin-4-yl)-1H-indol-7-yl)acetamide]: the IC50 (usually the concentration at which inhibition is half-maximal) is 10 to 100 nM. The figure for `CNC(=O)c1ccnc(O[C@H]2CCN(CC(=O)Nc3cccc4c(-c5nc(Nc6cc(C)n(C)n6)ncc5C)c[nH]c34)C2)n1` [Example 130, (S)-2-((1-(2-((3-(2-((1,5-dimethyl-1H-pyrazol-3-yl)amino)-5-methylpyrimidin-4-yl)-1H-indol-7-yl)amino)-2-oxoethyl)pyrrolidin-3-yl)oxy)-N-methylpyrimidine-4-carboxamide] is 10 to 100 nM; for `Cc1cnc(Nc2cc(C)n(C)n2)nc1-c1c[nH]c2c(N3Cc4c(NC(=O)CN(C)C)cccc4C3=O)cccc12` [Example 335, N-(2-(3-(2-((1,5-dimethyl-1H-pyrazol-3-yl)amino)-5-methylpyrimidin-4-yl)-1H-indol-7-yl)-1-oxoisoindolin-4-yl)-2-(dimethylamino)acetamide] it is less than 10 nM; for `Cc1cnc(Nc2cc(C)n(C)n2)nc1-c1c[nH]c2c(NC(=O)CN3CCC(Oc4ccncc4)C3)cccc12` (stereo not shown) [Example 76, N-(3-(2-((1,5-dimethyl-1H-pyrazol-3-yl)amino)-5-methylpyrimidin-4-yl)-1H-indol-7-yl)-2-(3-(pyridin-4-yloxy)pyrrolidin-1-yl)acetamide] it is less than 10 nM. Turning to `COc1cc(-c2cccc3c2CN(c2cccc4c(-c5nc(Nc6cc(C)n(C)n6)ncc5C)c[nH]c24)C3=O)c(F)cn1` [Example 403, 2-(3-(2-((1,5-dimethyl-1H-pyrazol-3-yl)amino)-5-methylpyrimidin-4-yl)-1H-indol-7-yl)-4-(5-fluoro-2-methoxypyridin-4-yl)isoindolin-1-one], the IC50 was 10 to 100 nM. The figure for `Cc1cnc(Nc2cc(C)n(C)n2)nc1-c1c[nH]c2c(N3Cc4c(NS(C)(=O)=O)cccc4C3=O)cccc12` [Example 342, N-(2-(3-(2-((1,5-dimethyl-1H-pyrazol-3-yl)amino)-5-methylpyrimidin-4-yl)-1H-indol-7-yl)-1-oxoisoindolin-4-yl)methanesulfonamide] is less than 10 nM; for `Cc1cncc(-c2ccc(F)c3c2CN(c2cccc4c(-c5nc(Nc6cc(C)n(C)n6)ncc5C)c[nH]c24)C3=O)c1` [Example 486, 2-(3-(2-((1,5-dimethyl-1H-pyrazol-3-yl)amino)-5-methylpyrimidin-4-yl)-1H-indol-7-yl)-7-fluoro-4-(5-methylpyridin-3-yl)isoindolin-1-one] it is less than 10 nM.

As to `Cc1cnc(Nc2cc(C)n(C)n2)nc1-c1c[nH]c2c(N3Cc4c(cccc4[N+](=O)[O-])C3=O)cccc12` [Example 271, 2-(3-(2-((1,5-dimethyl-1H-pyrazol-3-yl)amino)-5-methylpyrimidin-4-yl)-1H-indol-7-yl)-4-nitroisoindolin-1-one], the IC50 was less than 10 nM. With `Cc1cnc(Nc2cc(C)n(C)n2)nc1-c1c[nH]c2c(NC(=O)CN3CC[C@H](Oc4nccc(C(=O)O)n4)C3)cccc12` [Example 128, (S)-2-((1-(2-((3-(2-((1,5-dimethyl-1H-pyrazol-3-yl)amino)-5-methylpyrimidin-4-yl)-1H-indol-7-yl)amino)-2-oxoethyl)pyrrolidin-3-yl)oxy)pyrimidine-4-carboxylic acid] the figure was 10 to 100 nM; with `Cc1cnc(Nc2cc(C)n(C)n2)nc1-c1c[nH]c2c(N3Cc4c(NC(=O)C5CC5)cccc4C3=O)cccc12` [Example 300, N-(2-(3-(2-((1,5-dimethyl-1H-pyrazol-3-yl)amino)-5-methylpyrimidin-4-yl)-1H-indol-7-yl)-1-oxoisoindolin-4-yl)cyclopropanecarboxamide], less than 10 nM; with `Cc1cnc(Nc2cc(C)n(C)n2)nc1-c1c[nH]c2c(N3Cc4c(cccc4-c4ccnc(CO)c4)C3=O)cccc12` [Example 472, 2-(3-(2-((1,5-dimethyl-1H-pyrazol-3-yl)amino)-5-methylpyrimidin-4-yl)-1H-indol-7-yl)-4-(2-(hydroxymethyl)pyridin-4-yl)isoindolin-1-one], less than 10 nM. As for `Cc1cnc(Nc2cc(C)n(C)n2)nc1-c1c[nH]c2c(N3Cc4c(C#Cc5ccc(N)cc5)cccc4C3=O)cccc12` [Example 357, 4-((4-aminophenyl)ethynyl)-2-(3-(2-((1,5-dimethyl-1H-pyrazol-3-yl)amino)-5-methylpyrimidin-4-yl)-1H-indol-7-yl)isoindolin-1-one], the IC50 was in the range of 10 to 100 nM.

In the case of `Cc1cnc(Nc2cc(C)n(C)n2)nc1-c1c[nH]c2c(NC(=O)CN3C[C@@H](F)[C@H](Oc4ccnc(NC5CC5)n4)C3)cccc12` [Example 53, 2-((3R,4R)-3-((2-(cyclopropylamino)pyrimidin-4-yl)oxy)-4-fluoropyrrolidin-1-yl)-N-(3-(2-((1,5-dimethyl-1H-pyrazol-3-yl)amino)-5-methylpyrimidin-4-yl)-1H-indol-7-yl)acetamide], the 50% inhibitory concentration (IC50) is less than 10 nM. Turning to `Cc1cnc(Nc2cc(C)n(C)n2)nc1-c1c[nH]c2c(NC(=O)CN3CC[C@H](Oc4ccnc(NCCF)n4)C3)cccc12` [Example 202, (S)-N-(3-(2-((1,5-dimethyl-1H-pyrazol-3-yl)amino)-5-methylpyrimidin-4-yl)-1H-indol-7-yl)-2-(3-((2-((2-fluoroethyl)amino)pyrimidin-4-yl)oxy)pyrrolidin-1-yl)acetamide], the IC50 was less than 10 nM. `CCN(CC)c1cccc(O[C@H]2CCN(CC(=O)Nc3cccc4c(-c5nc(Nc6cc(C)n(C)n6)ncc5C)c[nH]c34)C2)c1` [Example 88]: the IC50 was in the range of 100 to 1000 nM. With `Cc1cnc(Nc2cc(C)n(C)n2)nc1-c1c[nH]c2c(N3Cc4c(NS(=O)(=O)c5ccccc5)cccc4C3=O)cccc12` [Example 341, N-(2-(3-(2-((1,5-dimethyl-1H-pyrazol-3-yl)amino)-5-methylpyrimidin-4-yl)-1H-indol-7-yl)-1-oxoisoindolin-4-yl)benzenesulfonamide] the figure was less than 10 nM. With `Cc1cc(-c2nccc3c2CN(c2cccc4c(-c5nc(Nc6cc(C)n(C)n6)ncc5C)c[nH]c24)C3=O)ccn1` [Example 502, 2-(3-(2-((1,5-dimethyl-1H-pyrazol-3-yl)amino)-5-methylpyrimidin-4-yl)-1H-indol-7-yl)-4-(2-methylpyridin-4-yl)-2,3-dihydro-1H-pyrrolo[3,4-c]pyridin-1-one] the figure was less than 10 nM. Consider `Cc1cnc(Nc2cc(C)n(C)n2)nc1-c1c[nH]c2c(N3Cc4c(NC(=O)[C@@H]5CCC(=O)N5)cccc4C3=O)cccc12` [Example 317, (S)-N-(2-(3-(2-((1,5-dimethyl-1H-pyrazol-3-yl)amino)-5-methylpyrimidin-4-yl)-1H-indol-7-yl)-1-oxoisoindolin-4-yl)-5-oxopyrrolidine-2-carboxamide], for which the half-maximal inhibitory concentration (IC50) is less than 10 nM. The figure for `Cc1cnc(Nc2cc(C)n(C)n2)nc1-c1c[nH]c2c(NC(=O)C(C)(C)N3CCCC3)cccc12` [Example 24, N-(3-(2-((1,5-dimethyl-1H-pyrazol-3-yl)amino)-5-methylpyrimidin-4-yl)-1H-indol-7-yl)-2-methyl-2-(pyrrolidin-1-yl)propenamide] is 100 to 1000 nM.

The values above are taken from patent US20240025884A1 (Dong-A ST Co., Ltd., priority 2022, published 2024).
